Test results reported in patent US12371428B2 (Exelixis, Inc., priority 2019, dated 2025).

Experiments:
[1] = target: Mer (phospho-Mer, MERTK-transfected 293A cells) (Homo sapiens (Human), UniProt Q12866); assay: Mer autophosphorylation ELISA in transient transfected 293A cells (Example H); format: cell-based; details: cellular activity; Mer autophosphorylation ELISA in transient transfected 293A cells
Method in brief: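 IC50 from phospho-Mer ELISA of MERTK-transfected 293A cell lysates after 1 h treatment with serially diluted compound in serum-free medium.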

[2] = target: Human KDR (residues 790-1356) (Homo sapiens (Human), UniProt P35968); assay: Human KDR kinase assay, HTRF KinEase (Example B-2); format: biochemical; details: protocol of Example B-2
Human KDR (residues 790-1356), sequence (P35968 790-1356): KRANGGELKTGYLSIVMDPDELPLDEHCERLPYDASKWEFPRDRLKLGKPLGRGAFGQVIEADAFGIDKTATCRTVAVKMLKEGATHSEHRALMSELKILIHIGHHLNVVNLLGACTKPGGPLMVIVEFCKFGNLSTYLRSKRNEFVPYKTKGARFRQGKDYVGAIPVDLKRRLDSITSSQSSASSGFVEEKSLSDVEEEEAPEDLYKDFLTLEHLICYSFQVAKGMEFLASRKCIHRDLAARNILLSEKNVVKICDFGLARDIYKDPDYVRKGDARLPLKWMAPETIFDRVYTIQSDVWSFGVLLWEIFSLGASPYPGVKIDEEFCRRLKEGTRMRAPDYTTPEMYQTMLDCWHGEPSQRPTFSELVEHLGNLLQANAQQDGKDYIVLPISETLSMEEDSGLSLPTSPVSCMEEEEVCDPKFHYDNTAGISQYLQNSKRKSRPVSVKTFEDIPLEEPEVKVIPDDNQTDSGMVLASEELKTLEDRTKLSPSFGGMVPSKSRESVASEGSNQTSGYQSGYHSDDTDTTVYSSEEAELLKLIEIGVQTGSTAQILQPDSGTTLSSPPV
Method in brief: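 Ten compound concentrations (3% DMSO final) were pre-plated, then KDR (790-1356) with biotinylated peptide in Mg/Mn/DTT buffer was added; ATP at Km (4.0 μM) started a 40 min room-temperature reaction. Detection used Eu-TK antibody and SA-XL665 in EDTA buffer; activity normalized to DMSO and reference inhibitor, IC50 by logistic fit.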

Mer (phospho-Mer, MERTK-transfected 293A cells), sequence (Q12866 21-999): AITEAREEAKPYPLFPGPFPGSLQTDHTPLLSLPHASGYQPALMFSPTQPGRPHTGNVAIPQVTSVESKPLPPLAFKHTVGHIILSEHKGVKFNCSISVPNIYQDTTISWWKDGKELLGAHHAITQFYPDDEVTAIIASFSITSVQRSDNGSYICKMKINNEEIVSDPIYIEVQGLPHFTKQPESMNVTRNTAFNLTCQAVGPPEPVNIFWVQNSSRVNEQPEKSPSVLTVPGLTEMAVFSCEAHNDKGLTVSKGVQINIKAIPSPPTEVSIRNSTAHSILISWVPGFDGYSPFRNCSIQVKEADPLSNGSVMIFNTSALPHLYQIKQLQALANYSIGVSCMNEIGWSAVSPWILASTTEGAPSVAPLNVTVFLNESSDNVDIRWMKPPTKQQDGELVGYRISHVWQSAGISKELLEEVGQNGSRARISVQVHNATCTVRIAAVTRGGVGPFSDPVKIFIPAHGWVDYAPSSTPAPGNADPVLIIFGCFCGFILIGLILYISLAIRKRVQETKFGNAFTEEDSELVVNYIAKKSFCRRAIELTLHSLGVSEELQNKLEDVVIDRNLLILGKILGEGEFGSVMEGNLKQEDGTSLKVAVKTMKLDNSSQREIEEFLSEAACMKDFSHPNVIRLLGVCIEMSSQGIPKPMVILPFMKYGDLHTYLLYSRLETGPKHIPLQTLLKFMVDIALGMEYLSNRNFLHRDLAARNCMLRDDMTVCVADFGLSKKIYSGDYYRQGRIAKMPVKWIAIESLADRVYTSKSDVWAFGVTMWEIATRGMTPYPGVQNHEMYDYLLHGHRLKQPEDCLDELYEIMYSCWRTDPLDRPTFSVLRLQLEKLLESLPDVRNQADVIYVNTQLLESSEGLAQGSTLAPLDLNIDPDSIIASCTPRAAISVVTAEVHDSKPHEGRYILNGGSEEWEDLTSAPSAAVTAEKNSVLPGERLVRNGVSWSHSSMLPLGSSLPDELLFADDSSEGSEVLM

| SMILES | IC50 [1] | IC50 [2] |
| --- | --- | --- |
| Cc1ccc2nccc(Oc3ccc(NC(=O)c4c(C)nc(C)c(-c5ccc(F)cc5C)c4O)cc3F)c2n1 [Compound 506, N-[3-fluoro-4-[(6-methyl-1,5-naphthyridin-4-yl)oxy]phenyl]-5-(4-fluoro-2-methylphenyl)-4-hydroxy-2,6-dimethylpyridine-3-carboxamide] | < 100 nM | > 300 nM |
| COc1cnc2c(Oc3ccc(NC(=O)c4c(C)n(C)c(C)c(-c5ccc(F)cc5)c4=O)cc3F)ccnc2c1 [Compound 508, N-[3-fluoro-4-[(7-methoxy-1,5-naphthyridin-4-yl)oxy]phenyl]-5-(4-fluorophenyl)-1,2,6-trimethyl-4-oxopyridine-3-carboxamide] | < 100 nM | > 300 nM |
| COCc1nc(C)c(-c2ccc(F)cc2)c(O)c1C(=O)Nc1ccc(Oc2ccnc3ccc(OC)nc23)cc1 [Compound 510, 5-(4-fluorophenyl)-4-hydroxy-2-(methoxymethyl)-N-[4-[(6-methoxy-1,5-naphthyridin-4-yl)oxy]phenyl]-6-methylpyridine-3-carboxamide] | < 100 nM | 100 to 300 nM |
| COc1cc2nccc(Oc3ccc(NC(=O)c4c(C)n(C)c(C)c(-c5ccc(F)cc5)c4=O)cc3F)c2nc1OC [Compound 511, N-[4-[(6,7-dimethoxy-1,5-naphthyridin-4-yl)oxy]-3-fluorophenyl]-5-(4-fluorophenyl)-1,2,6-trimethyl-4-oxopyridine-3-carboxamide] | < 100 nM | 100 to 300 nM |
| COc1cc2nccc(Oc3ccc(NC(=O)c4nn(C)c(C)c(-c5ccc(F)cc5C)c4=O)cc3F)c2nc1OC [Compound 512, N-[4-[(6,7-dimethoxy-1,5-naphthyridin-4-yl)oxy]-3-fluorophenyl]-5-(4-fluoro-2-methylphenyl)-1,6-dimethyl-4-oxopyridazine-3-carboxamide] | < 100 nM | < 100 nM |
| COc1cnc2c(Oc3ccc(NC(=O)c4nn(C)c(C)c(-c5ccc(F)cc5C)c4=O)cc3F)ccnc2c1 [Compound 513, N-[3-fluoro-4-[(7-methoxy-1,5-naphthyridin-4-yl)oxy]phenyl]-5-(4-fluoro-2-methylphenyl)-1,6-dimethyl-4-oxopyridazine-3-carboxamide] | < 100 nM | < 100 nM |
| COc1cnc2c(Oc3ccc(NC(=O)c4nnc(C)c(-c5ccc(F)cc5)c4OC)cc3)ccnc2c1 [Compound 515, 5-(4-fluorophenyl)-4-methoxy-N-[4-[(7-methoxy-1,5-naphthyridin-4-yl)oxy]phenyl]-6-methylpyridazine-3-carboxamide] | < 100 nM | < 100 nM |
| COCc1nc(C)c(-c2ccc(F)cc2C)c(O)c1C(=O)Nc1ccc(Oc2ccnc3ccc(OC)nc23)cc1 [Compound 516, 5-(4-fluoro-2-methylphenyl)-4-hydroxy-2-(methoxymethyl)-N-[4-[(6-methoxy-1,5-naphthyridin-4-yl)oxy]phenyl]-6-methylpyridine-3-carboxamide] | < 100 nM | > 300 nM |
| COc1cc2nccc(Oc3ccc(NC(=O)c4nn(C)c(C)c(-c5ccc(F)cc5C)c4=O)cc3)c2nc1OC [Compound 517, N-[4-[(6,7-dimethoxy-1,5-naphthyridin-4-yl)oxy]phenyl]-5-(4-fluoro-2-methylphenyl)-1,6-dimethyl-4-oxopyridazine-3-carboxamide] | < 100 nM | < 100 nM |
| COc1cc2nccc(Oc3ccc(NC(=O)c4c(C)nc(C)c(-c5ccc(F)cc5CO)c4O)cc3F)c2nc1OC [Compound 518, N-[4-[(6,7-dimethoxy-1,5-naphthyridin-4-yl)oxy]-3-fluorophenyl]-5-[4-fluoro-2-(hydroxymethyl]phenyl]-4-hydroxy-2,6-dimethylpyridine-3-carboxamide] | < 100 nM | < 100 nM |
| COc1cnc2c(Oc3ccc(NC(=O)c4cc(C)nn(-c5ccc(F)cc5)c4=O)cc3F)ccnc2c1 [Compound 521, N-[3-fluoro-4-[(7-methoxy-1,5-naphthyridin-4-yl)oxy]phenyl]-2-(4-fluorophenyl)-6-methyl-3-oxopyridazine-4-carboxamide] | > 300 nM | > 300 nM |
| COc1cnc2c(Oc3ccc(NC(=O)c4cc(C)nn(-c5ccc(F)cc5)c4=O)cc3)ccnc2c1 [Compound 522, 2-(4-fluorophenyl)-N-[4-[(7-methoxy-1,5-naphthyridin-4-yl)oxy]phenyl]-6-methyl-3-oxopyridazine-4-carboxamide] | > 300 nM | > 300 nM |
| COc1cc2nccc(Oc3ccc(NC(=O)c4c(C)c(C)nn(-c5ccc(F)cc5)c4=O)cc3F)c2nc1OC [Compound 524, N-[4-[(6,7-dimethoxy-1,5-naphthyridin-4-yl)oxy]-3-fluorophenyl]-2-(4-fluorophenyl)-5,6-dimethyl-3-oxopyridazine-4-carboxamide] | < 100 nM | 100 to 300 nM |
| COCc1nc(C)c(-c2ccc(F)cc2)c(O)c1C(=O)Nc1ccc(Oc2ccnc3ccc(OC)cc23)c(F)c1 [Compound 525, N-[3-fluoro-4-(6-methoxyquinolin-4-yl)oxyphenyl]-5-(4-fluorophenyl)-4-hydroxy-2-(methoxymethyl)-6-methylpyridine-3-carboxamide] | < 100 nM | > 300 nM |
| COc1cnc2c(Oc3ccc(NC(=O)c4ccnn(-c5ccc(F)cc5C)c4=O)cc3)ccnc2c1 [Compound 530, 2-(4-fluoro-2-methylphenyl)-N-[4-[(7-methoxy-1,5-naphthyridin-4-yl)oxy]phenyl]-3-oxopyridazine-4-carboxamide] | < 100 nM | > 300 nM |
| COc1cc2nccc(Oc3ccc(NC(=O)c4cnc(SC(C)C)n(-c5ccc(F)cc5)c4=O)cc3)c2cc1OC [Compound 539, N-[4-(6,7-dimethoxyquinolin-4-yl)oxyphenyl]-1-(4-fluorophenyl)-6-oxo-2-propan-2-ylsulfanylpyrimidine-5-carboxamide] | < 100 nM | 100 to 300 nM |
| COc1cc2nccc(Oc3cc(F)c(NC(=O)c4cnc(C)c(-c5ccc(F)cc5)c4O)cc3F)c2nc1C [Compound 542, N-[2,5-difluoro-4-[(7-methoxy-6-methyl-1,5-naphthyridin-4-yl)oxy]phenyl]-5-(4-fluorophenyl)-4-hydroxy-6-methylpyridine-3-carboxamide] | < 100 nM | 100 to 300 nM |
| CNc1nccc2c(Oc3ccc(NC(=O)c4cnc(C)n(-c5ccc(F)cc5)c4=O)cc3)ccnc12 [Compound 543, 1-(4-fluorophenyl)-2-methyl-N-[4-[[8-(methylamino)-1,7-naphthyridin-4-yl)oxy]phenyl]-6-oxopyrimidine-5-carboxamide] | < 100 nM | > 300 nM |

The remaining lines, values ahead:

| IC50 [1] | IC50 [2] | SMILES |
| --- | --- | --- |
| < 100 nM | < 100 nM | CCc1nc(C)c(-c2ccc(F)cc2)c(O)c1C(=O)Nc1ccc(Oc2ccnc3ccc(OC)nc23)cc1 [Compound 509, 2-ethyl-5-(4-fluorophenyl)-4-hydroxy-N-[4-[(6-methoxy-1,5-naphthyridin-4-yl)oxy]phenyl]-6-methylpyridine-3-carboxamide] |
| < 100 nM | < 100 nM | COc1cnc2c(Oc3ccc(NC(=O)c4nn(C)c(C)c(-c5ccc(F)cc5C)c4=O)cc3)ccnc2c1 [Compound 514, 5-(4-fluoro-2-methylphenyl)-N-[4-[(7-methoxy-1,5-naphthyridin-4-yl)oxy]phenyl]-1,6-dimethyl-4-oxopyridazine-3-carboxamide] |
| < 100 nM | > 300 nM | COc1cc2nccc(Oc3ccc(NC(=O)c4cc(C)nn(-c5ccc(F)cc5)c4=O)cc3F)c2nc1OC [Compound 519, N-[4-[(6,7-dimethoxy-1,5-naphthyridin-4-yl)oxy]-3-fluorophenyl]-2-(4-fluorophenyl)-6-methyl-3-oxopyridazine-4-carboxamide] |
| < 100 nM | > 300 nM | COc1cc2nccc(Oc3ccc(NC(=O)c4cc(C)nn(-c5ccc(F)cc5)c4=O)cc3)c2nc1OC [Compound 520, N-[4-[(6,7-dimethoxy-1,5-naphthyridin-4-yl)oxy]phenyl]-2-(4-fluorophenyl)-6-methyl-3-oxopyridazine-4-carboxamide] |
| < 100 nM | > 300 nM | COc1cc2nccc(Oc3ccc(NC(=O)c4c(C)n(C)c(C)c(-c5ccc(F)cc5)c4=O)cc3)c2nc1OC [Compound 523, N-[4-[(6,7-dimethoxy-1,5-naphthyridin-4-yl)oxy]phenyl]-5-(4-fluorophenyl)-1,2,6-trimethyl-4-oxopyridine-3-carboxamide] |
| < 100 nM | > 300 nM | CCc1nc(C)c(-c2ccc(F)cc2C)c(O)c1C(=O)Nc1ccc(Oc2ccnc3ccc(OC)nc23)cc1 [Compound 526, 2-ethyl-5-(4-fluoro-2-methylphenyl)-4-hydroxy-N-[4-[(6-methoxy-1,5-naphthyridin-4-yl)oxy]phenyl]-6-methylpyridine-3-carboxamide] |
| < 100 nM | < 100 nM | COc1cc2nccc(Oc3ccc(NC(=O)c4cnc(C)c(-c5ccc(F)cc5)c4O)cc3F)c2nc1C [Compound 541, N-[3-fluoro-4-[(7-methoxy-6-methyl-1,5-naphthyridin-4-yl)oxy]phenyl]-5-(4-fluorophenyl)-4-hydroxy-6-methylpyridine-3-carboxamide] |
| < 100 nM | < 100 nM | COc1cc2nccc(Oc3ccc(NC(=O)c4cnc(COC(C)=O)c(-c5ccc(F)cc5)c4O)cc3F)c2nc1OC [Compound 544, [5-[[4-[(6,7-dimethoxy-1,5-naphthyridin-4-yl)oxy]-3-fluorophenyl]carbamoyl]-3-(4-fluorophenyl)-4-hydroxypyridin-2-yl]methyl acetate] |
